Measurements from patent US20240374746A1, “SIRP-ALPHA ANTIBODIES AND CONJUGATES” (Tallac Therapeutics, Inc., priority 2021, published 2024).

What was measured:
[1] = test system: THP-1-Dual hTLR9 cell line, interferon regulatory factor (IRF) pathway; experiment: THP-1-Dual hTLR9 reporter assay, IRF pathway (secreted Lucia luciferase); type: cell-based; details: 24 hours; F(ab′)2 anti-human IgG Fcγ cross-linking agent; read-out: EC50 of IRF induction
Method: THP-1-Dual hTLR9 cell line (thpd-nfis, Invivogen) was derived from human THP-1 monocytes engineered to overexpress the human TLR9 (hTLR9) gene and featuring two reporter genes allowing for simultaneous assessment of the NF-kB pathway by monitoring the activity of an inducible secreted embryonic alkaline phosphatase (SEAP), and the interferon regulatory factor (IRF) pathway by monitoring the activity of an inducible secreted Lucia luciferase. Briefly, 250,000 cells in 100 uL of growth media (RPMI 1640 (Gibco), 2 mM L-glutamine (Gibco), 25 mM HEPES (Gibco), 10% FBS (Gibco), 100 U/mL penicillin (Gibco), 100 ug/mL streptomycin (Gibco), 100 ug/mL Normacin (Invivogen) were plated in 96-well flat-bottom plates (Nunc). An 8 step 2-fold serial dilution of anti-SIRP-α antibody or anti-SIRP-α antibody conjugate was added to cells in 50 μL for a final concentration range of 200 nM-1.56 nM. 10 μg/mL of a F(ab′)2 fragment goat anti-human, IgG Fcγ fragment specific (Jackson Immuno Research) was added in 50 μL of growth media as a cross-linking agent. Cells were incubated at 37 C for 24 hours. NF-kB and IRF induction from supernatant was detected according to manufacturer's protocol. EC50 values were derived using three-parameter […] regression curve fir in Prism 9 (GraphPad), and data were presented as fold-over media control. […]

[2] = test system: PBMC cells from three different donor lines (D559, D804 and D643); experiment: CpG activity on PBMCs from different donors (CD40 expression); type: cell-based, human; details: PBMCs of donors D559, D804 and D643; compared with 12070
Method: Trima residuals were received from Vitalant and diluted 1:2 with Phosphate Buffered Saline (PBS, Gibco). Diluted blood was split into two tubes and underplayed with 15 mL Ficoll-Paque (GE Healthcare). Tubes were centrifuged for 30 minutes at 400×g. PBMCs were collected from the interface, resuspended and washed in FACS buffer (PBS with 0.5% Bovine Serum Albumin (Gibco)). After one wash, PBMCs were resuspended in Complete RPMI (RPMI+10% FBS).
PBMCs were immediately plated onto a 96-well format (500K/well) in Complete RPMI. Five-fold serial dilutions were added to the cells from 1 uM to 64 pM of CpG oligonucleotides at 37° C. under 5% CO2 for 48 hours. Cells were pelleted by centrifugation for five minutes at 400×g and stained at 4° C. in Fixable Viability Dye eFluor 780 (Thermo Fisher) diluted 1:4000 in PBS. Cells were centrifuged and stained at 4° C. in FACS buffer for 30 minutes containing FcR Blocking Reagent (Miltenyi Biotec), anti-CD19, anti-CD20, anti-CD40, anti-HLADR and anti-CD80. Cells were centrifuged and washed twice in FACS buffer and fixed in 0.5% paraformaldehyde. Cells were analyzed on Attune NxT Flow Cytometer (Thermo Fisher), with subsequent data analysis by Flowjo 10.7 (Treestar). Dead cells were excluded by gating on the eFluor 780-negative population. B cells were identified as CD19+CD20+ cells and level of activation marker was assessed by median fluorescent intensity. […]

[3] = test system: Ramos-Blue Cells NF-kB/AP-1 Reporter B lymphocytes; experiment: Ramos NFkb Reporter Assay; type: cell-based, human; details: 1 uM to 64 pM CpG, 24 h; compared to 12070 and ODN2006
Method: For Ramos NFkb Reporter Assay, Ramos-Blue Cells NF-kB/AP-1 Reporter B lymphocytes were purchased from Invivogen. Cells were grown and maintained in complete DMEM supplemented with 2 mM L-glutamine, 10% FBS, 100 ug/mL Normacin, Pen-Strep, 100 ug/mL Zeocin. Stimulation of the Ramos-Blue cells was performed. Briefly, cells were rinsed in growth medium without antibiotics. Cells were counted and resuspended in fresh complete DMEM without selection antibiotics at a density of 2×10^6 cell/mL. 20 uL of 10 uM CpG 7-7, CpG 12070 and ODN2006 titrated 1:5 were added to a flat-bottom 96-well plate, 180 uL of the cell suspension were added to a final concentration of 1 uM to 64 pM of CpG. Plate was incubated at 37° C. in a 5% CO2 incubator for 24 h. On day of assay, QB reagent and QB buffer were thawed before us. Quanti-Blue solution was prepared by adding 1 mL of QB reagent and […] QB buffer to 98 mL of sterile water in a sterile glass bottle. 180 μL of Quanti-Blue solution was dispensed per well into a new flat-bottom 96-well plate. 20 μL of supernatant from treated Ramos-Blue cells was then added to the 96-well plate. Plate was ten incubated for 6 h. Optical density was measured at OD655 using a plate reader (Molecular Devices), and data was tabulated in GraphPad Prism 9.0.

[4] = test system: dendritic cells; experiment: Dendritic cell activation (CD40) in human PBMCs; type: cell-based; details: 24 hours
Method: Trima residuals were received from Vitalant and diluted 1:3 with Phosphate Buffered Saline (PBS, Gibco). Diluted blood was underplayed with 15 mL Ficoll-Paque (GE Healthcare). Tubes were centrifuged for 30 minutes at 400×g with break off. PBMCs were collected from the interface, resuspended and washed in FACS buffer (PBS with 0.5% Bovine Serum Albumin (Gibco)). After one wash, PBMCs were resuspended in Complete RPMI (RPMI, 10% FBS, 1× Pen/Strep, 1× Glutamax). PBMCs were immediately plated onto a 96-well format (1e6/well) in Complete RPMI. Three-fold serial dilutions were added to the cells from 300 nM to 0.4 nM for anti-SIRP-α antibody (heavy chain comprising the sequence of SEQ ID NO:66 and light chain comprising the sequence of SEQ ID NO:75) and anti-SIRP-α conjugate (heavy chain comprising the sequence of SEQ ID NO:66 and a light chain comprising the sequence of SEQ ID NO:75, conjugated to CpG oligo 7-7 (SEQ ID NO:35)). Free CpG 7-7 (SEQ ID NO:35) was titrated from 3 μM to 4.12 nM. Cells were incubated at 37° C. under 5% CO2 for 24 hours. […] Cells were analyzed on Attune NxT Flow Cytometer (Thermo Fisher), with subsequent data analysis by Flowjo 10.7 (Treestar). […] Levels of activation marker were assessed by median fluorescent intensity.

[5] = test system: dendritic cells; experiment: Dendritic cell activation (CD40) in cynomolgus PBMCs; type: cell-based; details: 48 hours
Method: Cynomolgus whole blood was received from BioIVT and diluted 1:3 with Phosphate Buffered Saline (PBS, Gibco). Diluted blood was underplayed with 15 mL 90% Ficoll-Paque (GE Healthcare) in PBS solution. Tubes were centrifuged for 30 minutes at 400×g with break off. Cells were collected from the interface, resuspended and washed in FACS buffer (PBS with 0.5% Bovine Serum Albumin (Gibco)). After one wash, cells were resuspended in ACK lysis buffer (Gibco) for 15 min at room temperature, washed in FACs buffer and centrifuged before repeating. Purified PBMCs were resuspended in Complete RPMI (RPMI, 10% FBS, 1× Pen/Strep, 1× Glutamax). PBMCs were immediately plated onto a 96-well format (0.3e6/well) in Complete RPMI. Three-fold serial dilutions were added to the cells from 1 μM to 1.4 nM of CpG oligonucleotide and 300 nM to 0.4 nM of anti-SIRP-α antibody (heavy chain comprising the sequence of SEQ ID NO:66 and light chain comprising the sequence of SEQ ID NO:75) and the corresponding antibody:CpG conjugate (heavy chain comprising the sequence of SEQ ID NO: 66 and light chain comprising the sequence of SEQ ID NO:75, conjugated to CpG oligo 7-7 (SEQ ID NO:35)) at 37° C. under 5% CO2 for 48 hours. […] Cells were analyzed on Attune NxT Flow Cytometer (Thermo Fisher), with subsequent data analysis by Flowjo 10.7 (Treestar). […] Levels of activation marker were assessed by median fluorescent intensity.

[6] = test system: CD14+ monocytes and dendritic cells; experiment: CD40 activation in myeloid cells by unconjugated CpG oligonucleotides; type: cell-based; details: human myeloid cells; 40 nM, 48 hours; compared to the 12070 CpG oligonucleotide
Method: Trima residuals were received from Vitalant and diluted 1:3 with Phosphate Buffered Saline (PBS, Gibco). Diluted blood was underplayed with 15 mL Ficoll-Paque (GE Healthcare). Tubes were centrifuged for 30 minutes at 400×g with break off. PBMCs were collected from the interface, resuspended and washed in FACS buffer (PBS with 0.5% Bovine Serum Albumin (Gibco)). After one wash, PBMCs were resuspended in Complete RPMI (RPMI+10% FBS). PBMCs were immediately plated onto a 96-well format (1e6/well) in Complete RPMI. CpG oligonucleotides were incubated with the cells at 40 nM concentration at 37° C. under 5% CO2 for 48 hours. Cells were pelleted by centrifugation for five minutes at 400×g and stained at 4° C. in Fixable Viability Dye eFluor 780 (Thermo Fisher) diluted 1:5000 in PBS. Cells were centrifuged and stained at 4° C. in FACS buffer for 60 minutes containing FcR Blocking Reagent (Miltenyi Biotec), anti-CD14, anti-CD11c, anti-CD3, anti-CD19, anti-CD56, anti-CD16, anti-HLADR, anti-CD40, and anti-CD86 (Thermo Fisher, Biolegend). Cells were centrifuged and washed twice in FACS buffer and fixed in 0.5% paraformaldehyde. Cells were analyzed on Attune NxT Flow Cytometer (Thermo Fisher), with subsequent data analysis by Flowjo 10.7 (Treestar). Dead cells were excluded by gating on the eFluor 780-negative population. […] Levels of activation marker were assessed by median fluorescent intensity.

CpG 7-7 (DNA TCGTCGTGTCGTTT; modified_base 1 OTHER; 5-Bromo-2'-deoxyuridine; modified_base 13..14 OTHER; 2'-O-Methyl-Thymidine; modified_base 1..4 OTHER; phosphorothioate linkages; misc_feature 4^5 phosphotriester linker-PEG24-NH2; modified_base 5..9 OTHER; modified_base 9^10 OTHER; phosphorodithioate linkage; modified_base 10..14 OTHER; misc_feature 14 3' spacer C3)
EC50 [1]: 84 nM
activity as observed by CD40 expression [2]: higher activities
activity in NFkb reporter assay [3]: significantly higher activity
surface marker expression (CD40) on dendritic cells [4]: potent TLR9 agonist with targeted dendritic cell activation across species
surface marker expression (CD40) on dendritic cells [5]: potent TLR9 agonist with targeted dendritic cell activation across species
activation of CD40 [6]: higher activation of CD40
